Results on six molecules are retold here after PubChem BioAssay AID330 (DTP/NCI, 2004).

For this test, the system named is P388 leukemia ip, CD2F1 mice, survival T/C. Put plainly: NCI In Vivo Anticancer Drug Screen. Data for tumor model P388 Leukemia (intraperitoneal) in CD2F1 (CDF1) mice. Conditions: endpoint: median survival time, higher = longer survival. The procedure, abridged:
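Mice carrying the transplanted tumor received test compound or vehicle. Survival was recorded in each group, and the value is the treated-group measurement divided by that of the vehicle-treated control group.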

Where [1] appears, read: dose: 12.5 mg/kg/injection, schedule: Q01DX009 (ip), vehicle: Klucel (hydroxypropylcellulose) (HPC).
Setting [2] is: dose: 25.0 mg/kg/injection, schedule: Q01DX009 (ip), vehicle: Klucel (hydroxypropylcellulose) (HPC).
[3] abbreviates: dose: 50.0 mg/kg/injection, schedule: Q01DX009 (ip), vehicle: Klucel (hydroxypropylcellulose) (HPC).
Where [4] appears, read: dose: 60.0 mg/kg/injection, schedule: Q01DX005 (ip), vehicle: saline with Tween-80.
[5] abbreviates: dose: 120.0 mg/kg/injection, schedule: Q01DX005 (ip), vehicle: saline with Tween-80.
Setting [6] is: dose: 240.0 mg/kg/injection, schedule: Q01DX005 (ip), vehicle: saline with Tween-80.

Structures are written as SMILES. Where “and” joins values, the source holds several entries; their conditions need not be identical. Equal entries are not always repeated. Inconclusive results and toxic doses are left out.

Consider `O=c1[nH]cc(F)c(=O)[nH]1`, for which the T/C is 163 % of control (dose: 6.25 mg/kg/injection, schedule: Q01DX009 (ip), vehicle: saline); 167 % of control and 172 % of control (dose: 7.5 mg/kg/injection, schedule: Q01DX009 (ip), vehicle: saline); 107 % of control (dose: 7.5 mg/kg/injection, schedule: Q01DX009 (oral), vehicle: clinical formulation); 201 % of control (dose: 7.5 mg/kg/injection, schedule: Q03HX024 (ip), vehicle: saline); 107 % of control (dose: 7.5 mg/kg/injection, schedule: Q04DX003 (iv), vehicle: saline); 99 % of control (dose: 7.8 mg/kg/injection, schedule: Q04DX003 (ip), vehicle: saline). The T/C runs as follows: (dose: 9.0 mg/kg/injection, schedule: Q01DX009 (ip), vehicle: saline) 159 % of control; (dose: 10.0 mg/kg/injection, schedule: Q03HX024 (ip), vehicle: saline) 228 % of control; (dose: 10.0 mg/kg/injection, schedule: Q04DX002 (ip), vehicle: saline) 123 % of control; (dose: 12.0 mg/kg/injection, schedule: Q01DX009 (ip), vehicle: saline) 153 % of control and 166 % of control; (dose: 12.5 mg/kg/injection, schedule: Q01DX005 (ip), vehicle: saline) 167 % of control and 176 % of control; (dose: 12.5 mg/kg/injection, schedule: Q01DX009 (ip), vehicle: saline) 166 % of control. In addition, the T/C by setting is: (dose: 13.0 mg/kg/injection, schedule: Q04DX002 (ip), vehicle: saline) 106 % of control; (dose: 13.2 mg/kg/injection, schedule: Q01DX009 (ip), vehicle: saline) 182 % of control and 213 % of control; (dose: 13.2 mg/kg/injection, schedule: Q01DX009 (ip), vehicle: water) 200 % of control; (dose: 13.3 mg/kg/injection, schedule: Q01DX009 (ip), vehicle: saline sonified) 165 % of control and 181 % of control and 200 % of control; (dose: 15.0 mg/kg/injection, schedule: Q03HX024 (ip), vehicle: saline) 257 % of control; (dose: 15.0 mg/kg/injection, schedule: Q04DX003 (iv), vehicle: saline) 109 % of control. The T/C is, setting by setting: (dose: 16.0 mg/kg/injection, schedule: Q01DX009 (ip), vehicle: saline) 212 % of control; (dose: 18.0 mg/kg/injection, schedule: Q01DX009 (ip), vehicle: saline) 166 % of control; (dose: 19.0 mg/kg/injection, schedule: Q01DX009 (ip), vehicle: saline) 170 % of control; (dose: 20.0 mg/kg/injection, schedule: Q01DX009 (ip), vehicle: water) 118 % of control; (dose: 21.6 mg/kg/injection, schedule: Q04DX002 (ip), vehicle: saline) 97 % of control; (dose: 22.5 mg/kg/injection, schedule: Q03HX024 (ip), vehicle: saline) 118 % of control. Also, the T/C reads like this: (dose: 24.0 mg/kg/injection, schedule: Q01DX009 (ip), vehicle: saline) 119 % of control and 223 % of control; (dose: 25.0 mg/kg/injection, schedule: Q01DX001 (iv), vehicle: saline) 120 % of control; (dose: 27.0 mg/kg/injection, schedule: Q01DX009 (ip), vehicle: water) 97 % of control; (dose: 27.0 mg/kg/injection, schedule: Q04DX003 (ip), vehicle: saline) 158 % of control; (dose: 28.0 mg/kg/injection, schedule: Q01DX009 (ip), vehicle: saline) 101 % of control; (dose: 28.8 mg/kg/injection, schedule: Q01DX005 (ip), vehicle: saline) 158 % of control. For the same molecule, the T/C was 162 % of control (dose: 30.0 mg/kg/injection, schedule: Q03DX003 (ip), vehicle: saline); 124 % of control (dose: 30.0 mg/kg/injection, schedule: Q04DX003 (iv), vehicle: saline); 100 % of control (dose: 36.0 mg/kg/injection, schedule: Q01DX009 (ip), vehicle: saline); 112 % of control (dose: 36.0 mg/kg/injection, schedule: Q04DX002 (ip), vehicle: saline); 165 % of control (dose: 40.0 mg/kg/injection, schedule: Q03DX003 (ip), vehicle: saline); 99 % of control (dose: 45.0 mg/kg/injection, schedule: Q01DX009 (ip), vehicle: saline). In addition, the T/C was 109 % of control (dose: 48.0 mg/kg/injection, schedule: Q01DX005 (ip), vehicle: saline); 119 % of control (dose: 50.0 mg/kg/injection, schedule: Q01DX001 (ip), vehicle: saline); 112 % of control (dose: 50.0 mg/kg/injection, schedule: Q01DX005 (ip), vehicle: saline); 168 % of control (dose: 50.0 mg/kg/injection, schedule: Q03DX003 (ip), vehicle: saline); 154 % of control (dose: 50.0 mg/kg/injection, schedule: Q04DX002 (ip), vehicle: saline); 159 % of control (dose: 54.0 mg/kg/injection, schedule: Q04DX003 (ip), vehicle: saline). In addition, the T/C was 94 % of control (dose: 60.0 mg/kg/injection, schedule: Q01DX009 (oral), vehicle: clinical formulation); 99 % of control (dose: 60.0 mg/kg/injection, schedule: Q03DX003 (ip), vehicle: saline); 170 % of control (dose: 60.0 mg/kg/injection, schedule: Q04DX003 (ip), vehicle: water); 122 % of control (dose: 60.0 mg/kg/injection, schedule: Q04DX003 (iv), vehicle: saline); 120 % of control (dose: 66.0 mg/kg/injection, schedule: Q01DX001 (ip), vehicle: saline); 99 % of control (dose: 75.0 mg/kg/injection, schedule: Q01DX005 (ip), vehicle: saline). In addition, the T/C runs as follows: (dose: 75.0 mg/kg/injection, schedule: Q04DX003 (ip), vehicle: saline) 185 % of control and 192 % of control and 199 % of control; (dose: 88.0 mg/kg/injection, schedule: Q01DX001 (ip), vehicle: saline) 115 % of control; (dose: 90.0 mg/kg/injection, schedule: Q04DX003 (ip), vehicle: saline sonified) 108 % of control; (dose: 100.0 mg/kg/injection, schedule: Q01DX001 (iv), vehicle: saline) 164 % of control; (dose: 120.0 mg/kg/injection, schedule: Q01DX005 (ip), vehicle: saline) 91 % of control; (dose: 120.0 mg/kg/injection, schedule: Q01DX009 (ip), vehicle: saline) 83 % of control. In addition, the T/C was 87 % of control (dose: 120.0 mg/kg/injection, schedule: Q04DX003 (iv), vehicle: saline); 109 % of control (dose: 125.0 mg/kg/injection, schedule: Q04DX003 (ip), vehicle: saline); 337 % of control (dose: 133.3 mg/kg/injection, schedule: Q01DX001 (ip), vehicle: saline); 98 % of control (dose: 135.0 mg/kg/injection, schedule: Q04DX003 (ip), vehicle: saline); 79 % of control and 81 % of control (dose: 166.7 mg/kg/injection, schedule: Q04DX003 (ip), vehicle: saline); 100 % of control (dose: 400.0 mg/kg/injection, schedule: Q01DX001 (iv), vehicle: saline).
As to `Clc1c2ccccc2[se][n+]1-c1ccccc1`, the T/C is 109 % of control under setting [1], 111 % of control under setting [2] and 115 % of control under setting [3].
As for `C=C(C)CCCCOCOCCOC`, the T/C by setting is: under setting [4], 99 % of control; under setting [5], 99 % of control; under setting [6], 97 % of control.
For `CC(C)(C)OC(=O)NNCC(=O)OCc1ccccc1`, the T/C reads like this: (dose: 12.5 mg/kg/injection, schedule: Q01DX009 (ip), vehicle: other) 96 % of control; (dose: 25.0 mg/kg/injection, schedule: Q01DX009 (ip), vehicle: other) 103 % of control; (dose: 50.0 mg/kg/injection, schedule: Q01DX009 (ip), vehicle: other) 111 % of control; (dose: 100.0 mg/kg/injection, schedule: Q01DX009 (ip), vehicle: other) 101 % of control; (dose: 200.0 mg/kg/injection, schedule: Q01DX009 (ip), vehicle: other) 99 % of control.
Regarding `O=C1NCCCC1(Cl)Cl`, the T/C was 100 % of control under setting [1], 104 % of control under setting [2] and 94 % of control under setting [3].
As to `COc1ccc(OC)c(NC(=O)CCCC(=O)CC(=O)c2cccnc2)c1`, the T/C reads like this: under setting [4], 103 % of control; under setting [5], 103 % of control; under setting [6], 101 % of control.
